Results published in ChEMBL document CHEMBL4765261, “Design, synthesis, and biological evaluation of heterotetracyclic quinolinone derivatives as anticancer agents targeting topoisomerases” (Eur J Med Chem, 2020).
pIC50: −log10 of the molar value. Active and inactive are the calls of the source. The rule behind the calls is not given here.

Experiments:
[1] = Cytotoxicity against human MDA-MB-231 cells assessed as reduction in cell viability at 10 uM after 72 hrs by MTT assay relative to control; format: cell-based; conditions: read-out: INH
NCI-H1299 = experiment: Anticancer activity against human H1299 cells assessed as inhibition of cell proliferation measured after 72 hrs by MTT assay; format: functional, cell-based; conditions: NCI-H1299, 72 h
[2] = molecular target: T1, DNA topoisomerase 1 (Homo sapiens) (UniProt P11387); experiment: Inhibition of human recombinant topoisomerase 1 expressed in baculovirus-infected insect cells assessed as inhibition of DNA relaxation at 1 uM incubated for 30 mins by ethidium bromide staining based agarose gel electrophoresis method
T1 sequence (whole entry): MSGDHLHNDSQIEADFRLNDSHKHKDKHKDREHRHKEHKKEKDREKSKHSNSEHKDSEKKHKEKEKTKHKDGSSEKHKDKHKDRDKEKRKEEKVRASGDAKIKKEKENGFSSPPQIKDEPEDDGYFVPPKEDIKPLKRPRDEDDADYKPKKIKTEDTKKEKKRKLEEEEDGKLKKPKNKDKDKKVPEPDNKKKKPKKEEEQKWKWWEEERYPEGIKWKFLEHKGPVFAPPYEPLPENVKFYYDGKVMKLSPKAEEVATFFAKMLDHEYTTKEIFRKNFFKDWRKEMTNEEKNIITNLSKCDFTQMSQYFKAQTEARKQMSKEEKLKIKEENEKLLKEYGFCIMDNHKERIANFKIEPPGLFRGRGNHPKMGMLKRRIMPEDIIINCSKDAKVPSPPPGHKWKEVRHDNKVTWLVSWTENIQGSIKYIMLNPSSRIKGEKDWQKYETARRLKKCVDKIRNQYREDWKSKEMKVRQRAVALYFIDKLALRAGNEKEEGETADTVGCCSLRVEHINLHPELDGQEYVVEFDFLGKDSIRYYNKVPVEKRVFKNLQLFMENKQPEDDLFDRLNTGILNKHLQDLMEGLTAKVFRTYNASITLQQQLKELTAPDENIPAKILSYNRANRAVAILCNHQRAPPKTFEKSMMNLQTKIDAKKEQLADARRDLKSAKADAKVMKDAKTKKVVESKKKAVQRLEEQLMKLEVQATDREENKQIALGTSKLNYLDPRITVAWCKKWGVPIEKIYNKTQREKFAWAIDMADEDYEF

HCT-116 = experiment: Anticancer activity against human HCT-116 cells assessed as inhibition of cell proliferation measured after 72 hrs by MTT assay; format: functional, cell-based; conditions: HCT-116, 72 h
MDA-MB-468 = experiment: Anticancer activity against human MDA-MB-468 cells assessed as inhibition of cell proliferation measured after 72 hrs by MTT assay; format: functional, cell-based; conditions: MDA-MB-468, 72 h
MCF7 = experiment: Anticancer activity against human MCF7 cells assessed as inhibition of cell proliferation measured after 72 hrs by MTT assay; format: functional, cell-based; conditions: MCF7, 72 h
[3] = molecular target: DNA topoisomerase 2-alpha (Homo sapiens) (UniProt P11388); experiment: Inhibition of human recombinant topoisomerase 2alpha expressed in baculovirus-infected insect cells assessed as inhibition of DNA relaxation at 3 uM incubated for 45 mins by ethidium bromide staining based agarose gel electrophoresis method
DNA topoisomerase 2-alpha (Homo sapiens), sequence (P11388 whole entry): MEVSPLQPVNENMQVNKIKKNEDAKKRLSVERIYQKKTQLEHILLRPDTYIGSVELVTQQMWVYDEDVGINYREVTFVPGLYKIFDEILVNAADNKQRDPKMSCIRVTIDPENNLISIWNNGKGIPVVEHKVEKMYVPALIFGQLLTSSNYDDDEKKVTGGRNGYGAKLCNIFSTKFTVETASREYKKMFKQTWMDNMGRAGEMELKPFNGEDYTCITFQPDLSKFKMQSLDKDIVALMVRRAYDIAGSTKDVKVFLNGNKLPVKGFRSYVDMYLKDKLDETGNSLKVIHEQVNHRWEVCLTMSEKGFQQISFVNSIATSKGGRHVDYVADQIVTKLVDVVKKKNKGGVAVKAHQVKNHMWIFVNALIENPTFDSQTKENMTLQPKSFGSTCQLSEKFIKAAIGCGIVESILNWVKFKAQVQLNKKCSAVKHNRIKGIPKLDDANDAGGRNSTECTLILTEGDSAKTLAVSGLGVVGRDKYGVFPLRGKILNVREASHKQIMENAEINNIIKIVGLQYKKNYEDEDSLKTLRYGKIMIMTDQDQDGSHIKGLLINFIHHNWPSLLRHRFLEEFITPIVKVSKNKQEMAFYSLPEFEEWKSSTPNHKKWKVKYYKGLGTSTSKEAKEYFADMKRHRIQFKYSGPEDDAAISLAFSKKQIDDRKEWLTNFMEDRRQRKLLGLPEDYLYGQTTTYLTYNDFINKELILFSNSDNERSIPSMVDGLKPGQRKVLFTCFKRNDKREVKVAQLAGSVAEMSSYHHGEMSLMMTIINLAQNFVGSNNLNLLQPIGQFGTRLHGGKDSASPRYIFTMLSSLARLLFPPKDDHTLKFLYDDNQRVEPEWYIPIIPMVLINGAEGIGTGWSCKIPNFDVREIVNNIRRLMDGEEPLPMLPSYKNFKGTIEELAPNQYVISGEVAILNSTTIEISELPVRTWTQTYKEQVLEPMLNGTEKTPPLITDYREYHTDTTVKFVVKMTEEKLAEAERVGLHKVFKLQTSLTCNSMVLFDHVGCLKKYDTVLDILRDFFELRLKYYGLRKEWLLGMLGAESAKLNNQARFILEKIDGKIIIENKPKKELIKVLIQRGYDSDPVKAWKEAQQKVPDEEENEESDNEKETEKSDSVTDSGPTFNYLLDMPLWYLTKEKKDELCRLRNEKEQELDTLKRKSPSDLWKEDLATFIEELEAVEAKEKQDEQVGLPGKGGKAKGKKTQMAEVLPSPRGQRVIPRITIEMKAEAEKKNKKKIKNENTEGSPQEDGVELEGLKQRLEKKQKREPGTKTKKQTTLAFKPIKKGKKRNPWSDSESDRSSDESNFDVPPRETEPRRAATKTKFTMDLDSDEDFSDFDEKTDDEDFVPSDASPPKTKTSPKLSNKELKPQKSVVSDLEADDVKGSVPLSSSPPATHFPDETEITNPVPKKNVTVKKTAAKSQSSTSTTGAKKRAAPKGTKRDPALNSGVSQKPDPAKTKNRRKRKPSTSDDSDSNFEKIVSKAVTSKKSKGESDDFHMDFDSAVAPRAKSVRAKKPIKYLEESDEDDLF

[4] = molecular target: T1, DNA topoisomerase 1 (Homo sapiens); experiment: Inhibition of human recombinant topoisomerase 1 expressed in baculovirus-infected insect cells assessed as inhibition of DNA relaxation at 3 uM incubated for 30 mins by ethidium bromide staining based agarose gel electrophoresis method
MDA-MB-231 [5] = experiment: Anticancer activity against human MDA-MB-231 cells assessed as inhibition of cell proliferation measured after 72 hrs by MTT assay; format: functional, cell-based; conditions: MDA-MB-231, 72 h
MDA-MB-231 [6] = experiment: Cell cycle arrest in human MDA-MB-231 cells assessed as accumulation at sub-G1 phase at 10 uM after 24 hrs by propidium iodide staining-based flow cytometric analysis (reference value: 0.72%); format: functional
MDA-MB-231 [7] = experiment: Cell cycle arrest in human MDA-MB-231 cells assessed as accumulation at sub-G1 phase at 20 uM after 24 hrs by propidium iodide staining based flow cytometric analysis (reference value: 0.72%); format: functional
[8] = molecular target: DNA topoisomerase 2-alpha (Homo sapiens) (UniProt P11388); experiment: Inhibition of human recombinant topoisomerase 2alpha expressed in baculovirus-infected insect cells assessed as inhibition of DNA relaxation at 1 uM incubated for 45 mins by ethidium bromide staining based agarose gel electrophoresis method
[9] = molecular target: T1, DNA topoisomerase 1 (Homo sapiens); experiment: Inhibition of human recombinant topoisomerase 1 expressed in baculovirus-infected insect cells assessed as inhibition of DNA relaxation at 10 uM incubated for 30 mins by ethidium bromide staining based agarose gel electrophoresis method
MDA-MB-231 [10] = experiment: Antiproliferative activity against human […] at 2.5 uM after 72 hrs by MTT assay relative to control; format: functional, cell-based
[11] = molecular target: T1, DNA topoisomerase 1 (Homo sapiens); experiment: Poison activity at human recombinant topoisomerase I assessed as accumulation of supercoiled DNA at 10 uM measured after 30 mins by ethidium bromide staining based agarose gel electrophoresis
MDA-MB-231 [12] = experiment: Cell cycle arrest in human MDA-MB-231 cells assessed as accumulation at sub-G1 phase at 2 uM after 24 hrs by propidium iodide staining-based flow cytometric analysis (reference value: 0.72%); format: functional
MCF-10A [13] = experiment: Antiproliferative activity against human MCF-10A cells at 2.5 uM after 72 hrs by MTT assay relative to control; format: cell-based
[14] = molecular target: DNA topoisomerase 2-alpha (Homo sapiens) (UniProt P11388); experiment: Poison activity at human recombinant topoisomerase II alpha in human MDA-MB-231 cells assessed as increase in chromatin incubated for 30 mins by Western blot analysis; format: cell-based
MDA-MB-231 [15] = experiment: Cell cycle arrest in human MDA-MB-231 assessed as increase accumulation at G2/M phase incubated for 12 hrs by propidium iodide staining based flow cytometric analysis relative to control; format: functional
MDA-MB-231 [16] = experiment: Induction of apoptosis in human MDA-MB-231 cells assessed as increase in cleaved caspase-8 level incubated for 24 hrs by Western blot analysis; format: functional, cell-based
MDA-MB-231 [17] = experiment: Induction of cell cycle arrest in human […] assessed as increase in accumulation of cells at sub-G1 phase at 2.5 uM incubated for 24 hrs by propidium iodide based flow cytometry analysis; format: functional
[18] = molecular target: T1, DNA topoisomerase 1 (Homo sapiens); experiment: Poison activity at human recombinant topoisomerase I assessed as accumulation of supercoiled DNA by measuring restricted DNA mobility at 30 uM measured after 30 mins by ethidium bromide staining based agarose gel electrophoresis
MCF-10A [19] = experiment: Induction of cell cycle arrest in human MCF-10A cells assessed as increase in accumulation of cells at sub-G1 phase at 2.5 uM incubated for 24 hrs by propidium iodide based flow cytometry analysis
MDA-MB-231 [20] = experiment: Induction of apoptosis in human MDA-MB-231 cells assessed as increase in cleaved caspase-9 level incubated for 24 hrs by Western blot analysis; format: functional, cell-based
MDA-MB-231 [21] = experiment: Induction of DNA damage in human MDA-MB-231 cells assessed as phosphorylation of Ser 139 of histone H2AX measured after 24 hrs by western blotting analysis; format: functional, cell-based
MDA-MB-231 [22] = experiment: Cell cycle arrest in human MDA-MB-231 cells assessed as accumulation at sub-G1 phase at 4 uM after 24 hrs by propidium iodide staining based flow cytometric analysis (reference value: 0.72%); format: functional
[23] = molecular target: T1, DNA topoisomerase 1 (Homo sapiens); experiment: Poison activity at human recombinant topoisomerase I in human MDA-MB-231 cells assessed as increase in chromatin incubated for 30 mins by Western blot analysis; format: cell-based

## Cc1ccc2sc3c(NCc4ccccc4)nc4ccccc4c3c(=O)c2c1
[1]
  cytotoxicity at 72 h, 10 µM: 21%

## NCCCNc1nc2ccccc2c2c(=O)c3cc(Cl)ccc3sc12
NCI-H1299
  pIC50: 5.33
[1]
  cytotoxicity at 72 h, 10 µM: > 95%
[2]
  inhibition: Active
HCT-116
  pIC50: 5.45
MDA-MB-468
  pIC50: 5.96
MCF7
  pIC50: 5.36
[3]
  inhibition: Active
[4]
  inhibition of DNA relaxation (active/inactive): Active
MDA-MB-231 [5]
  pIC50: 5.47

## CCNc1nc2ccccc2c2c(=O)c3cccc(OC)c3sc12
[1]
  cytotoxicity at 72 h, 10 µM: 21%

## CCNc1nc2ccccc2c2c(=O)c3cc(C)ccc3sc12
[1]
  cytotoxicity at 72 h, 10 µM: 21%

## O=C(Nc1nc2ccccc2c2c(=O)c3cc(Cl)ccc3sc12)c1ccccn1
[1]
  cytotoxicity at 72 h, 10 µM: < 20%

## NCCCNc1nc2ccccc2c2c(=O)c3cccc(Cl)c3sc12
NCI-H1299
  pIC50: 5.43
MDA-MB-231 [6]
  Activity: 9.8%
[1]
  cytotoxicity at 72 h, 10 µM: > 95%
[2]
  inhibition: Active
HCT-116
  pIC50: 5.60
MDA-MB-468
  pIC50: 6.57
MCF7
  pIC50: 5.35
MDA-MB-231 [7]
  Activity: 35.7%
[8]
  inhibition: 100%
[9]
  inhibition: 100%
[3]
  inhibition: Active
[4]
  inhibition of DNA relaxation (active/inactive): Active
MDA-MB-231 [5]
  pIC50: 5.66

## O=c1c2cc(F)ccc2sc2c(NCc3cccnc3)nc3ccccc3c12
[1]
  cytotoxicity at 72 h, 10 µM: 21%

## CCCNc1nc2ccccc2c2c(=O)c3cc(F)ccc3sc12
[1]
  cytotoxicity at 72 h, 10 µM: 21%

## COc1ccc2sc3c(NCCCN)nc4ccccc4c3c(=O)c2c1
NCI-H1299
  pIC50: < 5.30
[1]
  cytotoxicity at 72 h, 10 µM: > 95%
[2]
  inhibition: Active
HCT-116
  pIC50: < 5.30
MDA-MB-468
  pIC50: 5.52
MCF7
  pIC50: < 5.30
[9]
  inhibition: 100%
[3]
  inhibition: Active
[4]
  inhibition of DNA relaxation (active/inactive): Active
MDA-MB-231 [5]
  pIC50: 5.35

## NCCCNc1nc2ccccc2c2c(=O)c3cc(F)ccc3sc12
NCI-H1299
  pIC50: 5.52
[1]
  cytotoxicity at 72 h, 10 µM: > 95%
[2]
  inhibition: Active
HCT-116
  pIC50: 5.52
MDA-MB-468
  pIC50: 5.91
MCF7
  pIC50: 5.40
[9]
  inhibition: 100%
[3]
  inhibition: Active
[4]
  inhibition of DNA relaxation (active/inactive): Active
MDA-MB-231 [5]
  pIC50: 5.54

## Cc1ccc2sc3c(NCCCN)nc4ccccc4c3c(=O)c2c1
NCI-H1299
  pIC50: < 5.30
[1]
  cytotoxicity at 72 h, 10 µM: > 95%
[2]
  inhibition: Active
HCT-116
  pIC50: 5.37
MDA-MB-468
  pIC50: 5.54
MCF7
  pIC50: < 5.30
[9]
  inhibition: 100%
[3]
  inhibition: Active
[4]
  inhibition of DNA relaxation (active/inactive): Active
MDA-MB-231 [5]
  pIC50: 5.43

## CCNc1nc2ccccc2c2c(=O)c3cc(F)cc(Cl)c3sc12
[1]
  cytotoxicity at 72 h, 10 µM: 21%

## COc1cccc2c(=O)c3c(sc12)c(NCc1ccccc1)nc1ccccc13
[1]
  cytotoxicity at 72 h, 10 µM: 21%

## CCNc1nc2ccccc2c2c(=O)c3cccc(F)c3sc12
[1]
  cytotoxicity at 72 h, 10 µM: < 20%

## CCCNc1nc2ccccc2c2c(=O)c3cccc(Cl)c3sc12
[1]
  cytotoxicity at 72 h, 10 µM: < 20%

## CCCNc1nc2ccccc2c2c(=O)c3cc(OC)ccc3sc12
[1]
  cytotoxicity at 72 h, 10 µM: < 20%
[9]
  Activity: Active

## O=c1c2cccc(F)c2sc2c(NCc3ccccc3)nc3ccccc3c12
[1]
  cytotoxicity at 72 h, 10 µM: < 20%

## O=c1c2cc(F)ccc2sc2c(NCc3ccccc3)nc3ccccc3c12
[1]
  cytotoxicity at 72 h, 10 µM: 21%

## COc1ccc(CNc2nc3ccccc3c3c(=O)c4cc(Cl)ccc4sc23)cc1
[1]
  cytotoxicity at 72 h, 10 µM: 21%

## CCCNc1nc2ccccc2c2c(=O)c3c(Cl)cccc3sc12
[1]
  cytotoxicity at 72 h, 10 µM: < 20%

## NCCNc1nc2ccccc2c2c(=O)c3cc(F)cc(Cl)c3sc12
MDA-MB-231 [10]
  Activity: Active
[11]
  Activity: Active
NCI-H1299
  pIC50: 6.28
MDA-MB-231 [12]
  Activity: 3.6%
MCF-10A [13]
  Activity: Non-Toxic
[1]
  cytotoxicity at 72 h, 10 µM: > 95%
[14]
  Activity: Active
[2]
  inhibition: Active
MDA-MB-231 [15]
  Activity: Active
MDA-MB-231 [16]
  Activity: Active
HCT-116
  pIC50: 6.28
MDA-MB-468
  pIC50: 6.66
MCF7
  pIC50: 6.10
[8]
  inhibition: 100%
[9]
  inhibition: 100%
[3]
  inhibition: Active
MDA-MB-231 [17]
  Activity: 70.2%
[18]
  Activity: Active
MCF-10A [19]
  Activity: 1.6%
[4]
  inhibition of DNA relaxation (active/inactive): Active
MDA-MB-231 [20]
  Activity: Active
MDA-MB-231 [21]
  Activity: Active
MDA-MB-231 [5]
  pIC50: 5.94
MDA-MB-231 [22]
  Activity: 39.4%
[23]
  Activity: Active

## CCCNc1nc2ccccc2c2c(=O)c3cc(Cl)ccc3sc12
[1]
  cytotoxicity at 72 h, 10 µM: 21%

## CCCNc1nc2ccccc2c2c(=O)c3ccc(Cl)cc3sc12
[1]
  cytotoxicity at 72 h, 10 µM: < 20%
